Key:
GluClα = biological target: T1, GluClα (Caenorhabditis elegans, UniProt G5EBR3); assay: Glutamate current after IVMPO4 current activation, GluClα injected oocytes; assay type: cell-based, C. elegans; set-up: the full-length open reading frame of the GluCl cDNA encoding the GluClα (52,550 kDa) and GluClβ (49,900kDa) subunits; expressed in transfected cells; host or cells: Xenopus laevis oocytes injected with in vitro RNA
T1 sequence (G5EBR3 21-461): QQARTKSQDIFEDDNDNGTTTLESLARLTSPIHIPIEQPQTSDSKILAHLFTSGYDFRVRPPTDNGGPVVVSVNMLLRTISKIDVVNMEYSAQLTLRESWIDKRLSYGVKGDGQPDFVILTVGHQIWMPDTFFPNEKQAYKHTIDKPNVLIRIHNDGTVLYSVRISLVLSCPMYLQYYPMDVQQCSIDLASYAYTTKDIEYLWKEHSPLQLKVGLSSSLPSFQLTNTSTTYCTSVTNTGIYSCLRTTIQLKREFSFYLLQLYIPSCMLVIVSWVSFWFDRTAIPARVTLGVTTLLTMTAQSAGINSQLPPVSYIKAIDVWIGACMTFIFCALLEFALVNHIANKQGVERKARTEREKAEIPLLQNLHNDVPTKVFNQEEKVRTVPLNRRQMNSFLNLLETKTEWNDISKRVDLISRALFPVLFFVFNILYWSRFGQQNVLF
Description: (§1) Xenopus laevis oocytes were prepared and injected using standard methods previously described and known in the art [Arena, J. P., Liu. K. K., Paress, P. S. & Cully. D. F. Mol. Pharmacol. 40, 368-374 (1991 ); Arena, J. P., Liu, K. K., Paress, P. S., Schaeffer, J. M. & Cully, D. F. Mol. Brain Res. 15, 339-348 (1992)]. Adult female Xenopus laevis were anesthetized with 0.17% tricaine methanesulfonate and the ovaries were surgically removed and placed in a dish consisting of (mM): NaCl 1 82.5, KCl 2. MgCl2 1, CaCl2 1.8, HEPES 5 adjusted to pH 7.5 with NaOH (OR-2). Ovarian lobes were broken open, rinsed several times, and gently shaken in OR-2 containing 0.2% collagenase (Sigma, Type 1A) for 2-5 hours. […]
(§2) Recordings were made at room temperature 2-10 days after injection. […] Data were acquired and analyzed using PCLAMP with a TL-1 interface (Axon Instruments, Foster City, Calif.). Membrane current at a holding potential of -80 mV was recorded. The amplitude of drug-sensitive current was determined by subtracting the holding current at -80 mV from the peak current obtained in the presence of drug. […] Current/voltage relationships (I/V) and reversal potentials (Erev) were determined using a 1-3 sec voltage ramp over the voltage range of -110 to +80 mV. […]

GluClβ = biological target: T2, GluClβ (Caenorhabditis elegans, UniProt Q17328); assay: Modulation of glutamate-sensitive current by IVMPO4, GluClβ injected oocytes; assay type: cell-based, C. elegans
T2 construct: the full-length open reading frame of the GluCl cDNA encoding the GluClα (52,550 kDa) and GluClβ (49,900kDa) subunits; expressed in transfected cells; host or cells: Xenopus laevis oocytes injected with in vitro RNA
T2 sequence (Q17328 23-434): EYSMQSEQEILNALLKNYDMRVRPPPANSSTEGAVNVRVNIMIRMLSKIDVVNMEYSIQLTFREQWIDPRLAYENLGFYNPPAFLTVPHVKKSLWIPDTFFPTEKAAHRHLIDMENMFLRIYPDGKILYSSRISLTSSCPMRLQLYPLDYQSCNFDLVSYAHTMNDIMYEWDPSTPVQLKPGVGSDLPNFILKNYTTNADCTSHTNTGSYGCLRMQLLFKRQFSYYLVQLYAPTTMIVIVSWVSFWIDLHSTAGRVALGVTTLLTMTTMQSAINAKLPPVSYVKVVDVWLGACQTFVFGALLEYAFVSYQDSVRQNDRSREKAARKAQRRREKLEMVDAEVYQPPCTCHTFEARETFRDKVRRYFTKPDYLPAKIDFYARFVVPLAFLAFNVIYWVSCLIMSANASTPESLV
Description: as §1, §2

Compound | lowest glutamate concentrations at which glutamate-sensitive current could be observed (GluClα; following IVMPO4 current activation) | increase in current with glutamate (GluClα; prior activation of current with IVMPO4) | reduction of glutamate-sensitive current (GluClβ; following IVMPO4 1 μM) | potentiation of glutamate response (GluClβ; homomeric GluClβ channels)
N[C@@H](CCC(=O)O)C(=O)O [glutamate] | 10 µM | 20±4% |  | 
ivermectin-4-O-phosphate [IVMPO4] |  |  | 88±4% | not potentiated
